# Where two headings read alike, the source gives them in different places.
# Key:
# Assay type in all cases: cell-based
# [1] = system: H1299 human lung adenocarcinoma (p53 null) cells; experiment: cell proliferation assay, H1299
# Text: (§1) In this Example, the warfarin neoglycosides of the invention were screened for anti-tumor activity in cell proliferation assays using the following tumor cells lines: A549—human lung adenocarcinoma; H1299—human lung adenocarcinoma (p53 null); HCT-15—human colorectal adenocarcinoma; HT-29—human colorectal adenocarcinoma; MCF7—human breast adenocarcinoma; NCI-H460—human lung adenocarcinoma; SF-268—human CNS adenocarcinoma; and SKOV-3—human ovarian adenocarcinoma.
# (§2) All cell lines were maintained as previously reported (see Langenhan, J. M.; Peters, N. R.; Guzei, I. A.; Hoffmann, F. M.; Thorson, J. S. Proc. Natl. Acad. Sci. USA 2005, 102, 12305-12310, which is incorporated by reference herein). Cells were harvested using 0.25% trypsin and 0.1% EDTA and counted in a Cellometer Auto T4 cell counter (Nexcelom, Inc.) prior to dilution for assay plating. Cells were plated at a denity of 500 cells per well in 50 μL volumes in 384-well clear-bottom tissue culture plates (Corning-Costar, Inc.).
# (§3) Compounds were added from the 384-well compound stock plates at a 1:100 dilution using a Biomek FX liquid handler equipped with a 384-channel head (Beckman Coulter, Inc.). The plates were incubated for 7 days at 37° C. in a 5% CO2 atmosphere prior to performing the assays. Calcein AM (acetoxymethyl ester) reagent and EthD-1 (30 μL, 10 μM CAM and 100 μM EthD-1) was added and the cells were incubated for 30 min at 37° C. […] resulting from incubation with Calcein AM and EthD-1 was read using a Safire-2 microplate reader at the appropriate wavelengths. To lyse the cells, 15 μL of CellTiter-Glo reagent (Promega Corporation, Inc.) was added and the cells were incubated for 10 min at room temperature with gentle agitation. The luminescence of each plate was re-read to confirm the observed inhibition.
# (§4) IC50s for cell proliferation assays were determined for Calcein AM, the ratio of live/dead cells (Calcein AM/EthD-1), and CellTiter-Glo using XLfit 4.0 as previously described (see Langenhan, J. M.; Peters, N. R.; Guzei, I. A.; Hoffmann, F. M.; Thorson, J. S. Proc. Natl. Acad. Sci. USA 2005, 102, 12305-12310, which is incorporated by reference herein). The IC50 determined using the best fit curve for dosage response from any of the 3 assays is reported as the final IC50.
# [2] = system: MCF7 human breast adenocarcinoma cells; experiment: cell proliferation assay, MCF7
# Text: as §1, §2, §3, §4
# [3] = system: HCT-15 human colorectal adenocarcinoma cells; experiment: cell proliferation assay, HCT-15; conditions: for IC50: Table 3 summary of most active compounds, read-out: HCT15 Colorectal
# Text: as §1, §2, §3
# as §4, with “IC50. The best fit curve is defined as the curve with the lowest standard error.” for “IC50.”
# [4] = system: NCI-H460 human lung adenocarcinoma cells; experiment: cell proliferation assay, NCI-H460
# Text: as §1, §2, §3
# as §4, with “IC50. The best fit curve is defined as the curve with the lowest standard error.” for “IC50.”
# [5] = system: A549 human lung adenocarcinoma cells; experiment: cell proliferation assay, A549; conditions: read-out: A549 Lung (+p53)
# Text: as §1, §2, §3
# as §4, with “IC50. The best fit curve is defined as the curve with the lowest standard error.” for “IC50.”
# [6] = system: SKOV-3 human ovarian adenocarcinoma cells; experiment: cell proliferation assay, SKOV-3; conditions: read-out: SKOV3 Ovarian
# Text: as §1, §2, §3
# as §4, with “IC50. The best fit curve is defined as the curve with the lowest standard error.” for “IC50.”
# [7] = system: HT-29 human colorectal adenocarcinoma cells; experiment: cell proliferation assay, HT-29
# Text: as §1, §2, §3
# as §4, with “IC50. The best fit curve is defined as the curve with the lowest standard error.” for “IC50.”
# [8] = system: NCI/ADR-RES; experiment: cell proliferation assay, NCI/ADR-RES; conditions: Table 3 summary of most active compounds
# Description: as §2, §3, §4
# [9] = system: SF-268 human CNS adenocarcinoma cells; experiment: cell proliferation assay, SF-268
# Text: as §1, §2, §3, §4
# [10] = Table 3 summary of most active compounds, listed as D-xylose
# [11] = Table 3 summary of most active compounds
# [12] = Table 3 summary of most active compounds, IC50, read-out: H729 Colorectal
# [13] = Table 3 summary of most active compounds, IC50, read-out: SF268 Giloblast
# [14] = Homo sapiens, MCF7, Table 3 summary of most active compounds
# [15] = Homo sapiens, NCI-H460, Table 3 summary of most active compounds
# [16] = Homo sapiens, A549, Table 3 summary of most active compounds
# [17] = Homo sapiens, SK-OV-3, Table 3 summary of most active compounds
# [18] = Homo sapiens, HT-29, read-out: H729 Colorectal
# [19] = Homo sapiens, SF-268, read-out: SF268 Giloblast
# [20] = Table 3 summary of most active compounds, listed as L-arabinose
# [21] = Table 3 summary of most active compounds, listed as L-xylose
# [22] = Table 3 summary of most active compounds, listed as L-ribose
# [23] = Table 3 summary of most active compounds, listed as D-lyxose
smiles,measurement,setting,value
CON(C(C)CC(c1ccccc1)c1c(O)c2ccccc2oc1=O)C1OCC(O)C(O)C1O (mixture of isomers) [WARF Analog 9],IC50,[1]; [10],27 µM
same,IC50,[2]; [10],12 µM
same,IC50,[3]; listed as D-xylose,11 µM
same,IC50,[4]; [10],99 µM
same,IC50,[5]; [10],40 µM
same,IC50,[6]; [10],52 µM
same,IC50,"[7]; Table 3 summary of most active compounds, IC50, listed as D-xylose, read-out: H729 Colorectal",43 µM
same,IC50,[8]; listed as D-xylose,38 µM
same,IC50,"[9]; Table 3 summary of most active compounds, IC50, listed as D-xylose, read-out: SF268 Giloblast",37 µM
CON(C(C)CC(c1ccccc1)c1c(O)c2ccccc2oc1=O)C1OC(C)C(O)C(O)C1O (mixture of isomers) [WARF Analog 50],IC50,[3]; listed as 6-deoxy-D-glucose,14 µM
same,IC50,[4]; [11],> 100 µM
same,IC50,[5]; [11],> 100 µM
same,IC50,"[6]; Table 3 summary of most active compounds, listed as 6-deoxy-D-glucose",> 100 µM
same,IC50,"[7]; Table 3 summary of most active compounds, IC50, listed as 6-deoxy-D-glucose, read-out: H729 Colorectal",> 100 µM
same,IC50,[8],> 100 µM
same,IC50,"[9]; Table 3 summary of most active compounds, IC50, listed as 6-deoxy-D-glucose, read-out: SF268 Giloblast",> 100 µM
CON(C(C)CC(c1ccccc1)c1c(O)c2ccccc2oc1=O)C1CC(C)(O)C(O)C(C)O1 (mixture of isomers) [WARF Analog 37],IC50,[1]; [11],> 100 µM
same,IC50,[2]; [11],> 100 µM
same,IC50,[3],16 µM
same,IC50,[4]; [11],> 100 µM
same,IC50,[5]; [11],> 100 µM
same,IC50,[6]; [11],> 100 µM
same,IC50,[7]; [12],> 100 µM
same,IC50,[8],> 100 µM
same,IC50,[9]; [13],> 100 µM
"CONC(C)CC(c1ccccc1)c1c(O)c2ccccc2oc1=O (centres unmarked) [WARF Analog C, 4-hydroxy-3-(3-(methoxyamino)-1-phenylbutyl)-2H-1-benzopyran-2-one]",IC50,"[1]; Homo sapiens, NCI-H1299, Table 3 summary of most active compounds",> 100 µM
same,IC50,[2]; [14],> 100 µM
same,IC50,"[3]; Homo sapiens, HCT-15",> 100 µM
same,IC50,[4]; [15],> 100 µM
same,IC50,[5]; [16],> 100 µM
same,IC50,[6]; [17],> 100 µM
same,IC50,[7]; [18],> 100 µM
same,IC50,[8]; Homo sapiens,> 100 µM
same,IC50,[9]; [19],> 100 µM
CON(C(C)CC(c1ccccc1)c1c(O)c2ccccc2oc1=O)C1OCC(O)C(O)C1O (mixture of isomers) [WARF Analog 15],IC50,[1]; [20],51 µM
same,IC50,[2]; [20],79 µM
same,IC50,[3]; listed as L-arabinose,49 µM
same,IC50,[4]; [20],> 100 µM
same,IC50,[5]; [20],48 µM
same,IC50,[6]; [20],76 µM
same,IC50,"[7]; Table 3 summary of most active compounds, IC50, listed as L-arabinose, read-out: H729 Colorectal",97 µM
same,IC50,[8]; listed as L-arabinose,68 µM
same,IC50,"[9]; Table 3 summary of most active compounds, IC50, listed as L-arabinose, read-out: SF268 Giloblast",69 µM
CON(C(C)CC(c1ccccc1)c1c(O)c2ccccc2oc1=O)C1OCC(O)C(O)C1O (mixture of isomers) [WARF Analog 1],IC50,[1]; [21],30 µM
same,IC50,[2]; [21],15 µM
same,IC50,[3]; listed as L-xylose,14 µM
same,IC50,[4]; [21],> 100 µM
same,IC50,[5]; [21],67 µM
same,IC50,[6]; [21],45 µM
same,IC50,"[7]; Table 3 summary of most active compounds, IC50, listed as L-xylose, read-out: H729 Colorectal",37 µM
same,IC50,[8]; listed as L-xylose,50 µM
CON(C(C)CC(c1ccccc1)c1c(O)c2ccccc2oc1=O)C1OCC(O)C(O)C1O (mixture of isomers) [WARF Analog 25],IC50,[2]; [22],45 µM
same,IC50,[3]; listed as L-ribose,37 µM
same,IC50,[4]; [22],> 100 µM
same,IC50,[5]; [22],72 µM
same,IC50,[6]; [22],60 µM
same,IC50,"[7]; Table 3 summary of most active compounds, IC50, listed as L-ribose, read-out: H729 Colorectal",72 µM
same,IC50,[8]; listed as L-ribose,62 µM
same,IC50,"[9]; Table 3 summary of most active compounds, IC50, listed as L-ribose, read-out: SF268 Giloblast",> 100 µM
CON(C(C)CC(c1ccccc1)c1c(O)c2ccccc2oc1=O)C1OC(C)C(O)C(O)C1O (mixture of isomers) [WARF Analog 12],IC50,[1]; [11],> 100 µM
same,IC50,[2]; [11],> 100 µM
same,IC50,[3]; listed as L-fucose,9 µM
same,IC50,[4]; [11],> 100 µM
same,IC50,[5]; [11],> 100 µM
same,IC50,"[6]; Table 3 summary of most active compounds, listed as L-fucose",81 µM
same,IC50,"[7]; Table 3 summary of most active compounds, IC50, listed as L-fucose, read-out: H729 Colorectal",80 µM
same,IC50,[8],> 100 µM
same,IC50,"[9]; Table 3 summary of most active compounds, IC50, listed as L-fucose, read-out: SF268 Giloblast",89 µM
CON(C(C)CC(c1ccccc1)c1c(O)c2ccccc2oc1=O)C1O[C@H](COCc2ccccc2)[C@@H](OCc2ccccc2)[C@@H]1OCc1ccccc1 (some centres unmarked) [WARF Analog 42],IC50,[1]; [11],19 µM
same,IC50,[2]; [11],29 µM
same,IC50,[3],11 µM
same,IC50,[5]; [11],27 µM
same,IC50,[6]; [11],27 µM
same,IC50,[7]; [12],19 µM
same,IC50,[8],20 µM
same,IC50,[9]; [13],20 µM
CON(C(C)CC(c1ccccc1)c1c(O)c2ccccc2oc1=O)C1CC(O)C(O)CO1 (mixture of isomers) [WARF Analog 11],IC50,[1]; [11],92 µM
same,IC50,[2]; [11],78 µM
same,IC50,[3],13 µM
same,IC50,[4]; [11],> 100 µM
same,IC50,[5]; [11],> 100 µM
same,IC50,[6]; [11],> 100 µM
same,IC50,[7]; [12],> 100 µM
same,IC50,[8],> 100 µM
same,IC50,[9]; [13],> 100 µM
CON(C(C)CC(c1ccccc1)c1c(O)c2ccccc2oc1=O)C1OCC(O)C(O)C1O (mixture of isomers) [WARF Analog 6],"level of activity, in words","[3]; HCT 15 colorectal cell lines, compared with all the neoglycosides tested",highest level of activity
same,IC50,[3]; listed as D-lyxose,7 µM
same,IC50,[4]; [23],> 100 µM
same,IC50,[5]; [23],76 µM
same,IC50,[6]; [23],47 µM
same,IC50,"[7]; Table 3 summary of most active compounds, IC50, listed as D-lyxose, read-out: H729 Colorectal",52 µM
same,IC50,[8]; listed as D-lyxose,57 µM
same,IC50,"[9]; Table 3 summary of most active compounds, IC50, listed as D-lyxose, read-out: SF268 Giloblast",39 µM
"CC(=O)CC(c1ccccc1)c1c(O)c2ccccc2oc1=O (centres unmarked) [WARF Analog A, 4-hydroxy-3-(3-oxo-1-phenylbutyl)-2H-1-benzopyran-2-one, reference compound]",IC50,[2]; [14],301 µM
same,IC50,"[3]; Homo sapiens, HCT-15",543 µM
same,IC50,[4]; [15],557 µM
same,IC50,[5]; [16],781 µM
same,IC50,[6]; [17],393 µM
same,IC50,[7]; [18],735 µM
same,IC50,[8]; Homo sapiens,> 100 µM
same,IC50,[9]; [19],765 µM

# From US8278436B2, “Glycosylated warfarin analogs and uses thereof” (priority 2008, dated 2012)
